Several values for one entry are separate records, joined by “and”; a condition that tells them apart may be missing. Equal values may be shown once.
Columns and labels:
PfCRT variant E207L = target: T1, PfCRT variant E207L (Plasmodium falciparum, UniProt Q9N623, A220S/E207L/I356T/K76T/M74I/N326S/N75E/Q271E/R371I); experiment: CQ uptake assay, oocytes expressing E207L; format: cell-based
T1 construct: expressed in transfected cells; host or cells: Xenopus laevis oocytes injected with in vitro transcribed RNA (pSP64T)
T1 sequence (Q9N623 1-424 M74I/N75E/K76T/E207L/A220S/Q271E/N326S/I356T/R371I): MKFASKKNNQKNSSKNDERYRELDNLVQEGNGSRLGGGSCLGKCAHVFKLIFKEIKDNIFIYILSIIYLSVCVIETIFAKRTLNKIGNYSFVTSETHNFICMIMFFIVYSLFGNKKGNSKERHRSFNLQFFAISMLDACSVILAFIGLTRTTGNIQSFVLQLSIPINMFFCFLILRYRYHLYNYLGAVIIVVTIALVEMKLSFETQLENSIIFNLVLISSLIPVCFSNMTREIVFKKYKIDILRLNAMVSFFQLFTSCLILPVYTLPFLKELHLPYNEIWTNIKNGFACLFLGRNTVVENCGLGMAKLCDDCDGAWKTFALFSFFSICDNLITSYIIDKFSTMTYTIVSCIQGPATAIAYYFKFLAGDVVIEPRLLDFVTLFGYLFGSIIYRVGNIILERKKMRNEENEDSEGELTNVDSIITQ
Experimental: (§1) Site-directed mutagenesis of PfCRT^Dd2 was performed as described using the megaprimer method with overlap extension[21],[54]. The primer pairs used are listed in Supplementary Table 6. Please note that a codon-optimized and oocyte-adapted version of PfCRT^Dd2 was used[22] (Supplementary Fig. 16). The resulting DNA fragment was cloned into the SP64T expression vector and verified by sequencing.
(§2) Oocytes were obtained as described previously. Briefly, adult (>2 years old) female X. laevis frogs (NASCO) were anesthetized in a cooled solution of ethyl 3-amino benzoate methanesulfonate (0.1%, w/v), followed by a surgical removal of parts of the ovary. The ovary lobes were carefully dissected and small pieces of oocytes were incubated in Ca^2+-free ND96 buffer (96 mM NaCl, 2 mM KCl, 1 mM MgCl2 buffered with 5 mM HEPES/NaOH, pH 7.5) supplemented with collagenase D (0.1%, w/v; Roche), BSA (0.5%, w/v), and 9 mm Na2HPO4 at 18 °C for 14-16 h while gentle shaking. After incubation, the oocytes were carefully washed several times with ND96 buffer (96 mM NaCl, 2 mM KCl, 1.8 mM CaCl2, 1 mM MgCl2 buffered with 5 mM HEPES/NaOH, pH 7.5) supplemented with 100 mg l^−1 gentamycin). Defolliculated and healthy-looking stage V-VI oocytes were manually selected for RNA microinjection. The RNA was generated as following: The codon-optimized sequences of PfCRT variants were cloned into the pSP64T expression vector. After vector linearization using the restriction endonucleases BamHI or SalI (New England Biolabs), transcription was performed using the in vitro SP6 mMessage mMachine Kit (Ambion)[34]. The obtained RNA was kept at −80 °C and diluted with nuclease-free water to a concentration of 0.6 μg μl^−1. Precision-bore glass capillary tubes (3.5-inch glass capillaries; Drummond Scientific Co.) were pulled on a vertical puller (P-87 Flaming/Brown micropipette puller, Sutter Instrument Co.), graduated, and placed on a microinjector (Nanoject II Auto-Nanoliter Injector, Drummond Scientific Co.). 50 nl of nuclease-free water alone (control oocytes) or 50 nl of 0.6 μg μl^−1 RNA were injected under stereomicroscopic control. Injected oocytes were incubated for 46–72 h at 18 °C with twice-daily buffer changes before usage in experiments.
Drug uptake assays were performed as described previously[21],[22],[24],[34]. […] The direction of radio-labeled drug transport is here from the mostly acidic extracellular solution (pH 4.5 or 6.0, as indicated) into the oocyte cytosol (pH ∼ 7.2), which corresponds to the efflux of drug from the acidic digestive vacuole (pH 5.2) into the parasite cytoplasm (pH 7.2). The topology of PfCRT in the oolemma is such that both the N- and C-terminus face the extracellular milieu[3],[22]. In the parasite, the N- and C-terminus face the lumen of the digestive vacuole. […] For determination of the amount of drug uptake for each oocyte, the reaction medium was removed and the oocytes were washed three times with 2 ml of ice-cold ND96 buffer. Each oocyte was individually transferred to a scintillation vial containing 5% sodium dodecyl sulfate (200 μl) for lysis. […] Oocytes that were injected with water instead of RNA were analyzed in parallel, representing the uptake of a drug by diffusion and/or endogenous permeation pathways. The resulting value represents the “background“ level of drug accumulation in oocytes (in-depth discussion in[22]). The specific PfCRT-mediated uptake was determined by subtracting the corresponding background value measured in water-injected oocytes from that of PfCRT-expressing oocytes. In all cases, at least three separate experiments were performed on oocytes from different frogs (biological replicate), and for each condition in an experiment, measurements were made from 10 oocytes per treatment. For pH 5.5, 6.0, and 6.5, ND96 was buffered with 5 mM MES/Tris base.

PfCRT variant K80A = experiment: CQ uptake assay, oocytes expressing K80A; format: cell-based, Plasmodium falciparum
Experimental: as §1, §2
Drug uptake assays were performed as described previously[21],[22],[24],[34]. […] The direction of radio-labeled drug transport is here from the mostly acidic extracellular solution (pH 4.5 or 6.0, as indicated) into the oocyte cytosol (pH ∼ 7.2), which corresponds to the efflux of drug from the acidic digestive vacuole (pH 5.2) into the parasite cytoplasm (pH 7.2). The topology of PfCRT in the oolemma is such that both the N- and C-terminus face the extracellular milieu[3],[22]. In the parasite, the N- and C-terminus face the lumen of the digestive vacuole. CQ uptake kinetics were performed by incubating oocytes in ND96 buffer adjusted to a pH of 4.5, 5.0, 5.5, or 6.0 and supplemented with 50 nM [^3H]CQ and one of 7 different CQ concentrations (10 µM, 50 µM, 100 µM, 200 µM, 300 µM, 400 µM, 500 µM CQ). The reaction was stopped at the 60 min time point, which is in the linear uptake range[22],[34] (Supplementary Fig. 17). For determination of the amount of drug uptake for each oocyte, the reaction medium was removed and the oocytes were washed three times with 2 ml of ice-cold ND96 buffer. Each oocyte was individually transferred to a scintillation vial containing 5% sodium dodecyl sulfate (200 μl) for lysis. The radioactivity of each sample was measured using a liquid scintillation analyzer Tri-Carb 4910 TR (PerkinElmer). Oocytes that were injected with water instead of RNA were analyzed in parallel, representing the uptake of a drug by diffusion and/or endogenous permeation pathways. The resulting value represents the “background“ level of drug accumulation in oocytes (in-depth discussion in[22]). […]

[1] = E207L, 50 µM CQ, 1 h, mean ± SEM
[2] = K80A, 50 µM CQ, 1 h, mean ± SEM

## CCN(CC)CCCC(C)Nc1ccnc2cc(Cl)ccc12 (stereo not drawn) [CQ, chloroquine]
PfCRT variant E207L; [1]
  Activity at pH 4.5: 2.10 ± 0.17 pmol h-1 oocyte-1
  Activity at pH 6.0: 2.25 ± 0.22 pmol h-1 oocyte-1
PfCRT variant E207L; E207L, CQ transport at pH 4.5 / pH 6.0
  R-value: 0.95 ± 0.04
PfCRT variant E207L; pH 4.5, individual replicates, Fig 6b
  E207L transport activity pH 4.5: 2.14 pmol oocyte-1 h-1 and 2.36 pmol oocyte-1 h-1 and 2.37 pmol oocyte-1 h-1 and 1.53 pmol oocyte-1 h-1
PfCRT variant E207L; pH 6.0, individual replicates, Fig 6b
  E207L transport activity pH 6.0: 2.70 pmol oocyte-1 h-1 and 2.35 pmol oocyte-1 h-1 and 1.52 pmol oocyte-1 h-1
PfCRT variant E207L; ratio of activity pH 4.5 / pH 6.0
  E207L R-value: 0.79 and 1.00 and 0.98 and 1.01
PfCRT variant K80A; [2]
  Activity at pH 4.5: 1.71 ± 0.08 pmol h-1 oocyte-1
  Activity at pH 6.0: 2.26 ± 0.12 pmol h-1 oocyte-1
PfCRT variant K80A; K80A, CQ transport at pH 4.5 / pH 6.0
  R-value: 0.76 ± 0.04
PfCRT variant K80A; pH 4.5, individual replicates (Fig 6a)
  K80A transport activity pH 4.5: 1.97 pmol oocyte-1 h-1 and 1.67 pmol oocyte-1 h-1 and 1.57 pmol oocyte-1 h-1 and 1.62 pmol oocyte-1 h-1
PfCRT variant K80A; pH 6.0, individual replicates (Fig 6a)
  K80A transport activity pH 6.0: 2.59 pmol oocyte-1 h-1 and 1.89 pmol oocyte-1 h-1 and 2.31 pmol oocyte-1 h-1 and 2.26 pmol oocyte-1 h-1
PfCRT variant K80A; transport activity pH 4.5 relative to pH 6.0 (Fig 6a)
  K80A R-value: 0.76 and 0.88 and 0.68 and 0.72
